According to US11628186B2, “Method and composition for the reduction of viral replication, duration and spread of the COVID-19 and the flu” (priority 2017, dated 2023):
Read-outs that look alike come from different tables or passages of the source.

Tests used:
lung tumors = details: cited from earlier work
tumors = assay: Pre-inhalation of the formula before inhaled 3-bromopyruvate; type: in vivo, rats
Procedure: The problem with 3-bromopyruvate was its toxicity to normal lung cells. The formula needed to protect noncancerous cells from 3-bromopyruvate and to enhance its effect on tumors, was the addition of inhaled 20 mM solution of sodium pyruvate, calcium, phosphate, magnesium formula inhaled 1-2 hours prior to the inhalation of the 10 mg of 3-bromopyruvate. The investigators were given the sodium pyruvate with calcium, phosphate and magnesium formula and instructed to have the rats inhale the formula 1-2 hours prior the inhalation of the cancer drug. This approach reduced tumor sizes by 90% compared the 60% reduction with 3bromopyruvate by itself. The addition of dichloroacetate with 3-bromopyruvate to the sodium pyruvate with calcium, phosphate and magnesium formula was the best formula decreasing tumor loads by 95%, especially with the addition of magnesium bicarbonate that increased the PH to 7.9 to neutralize the lactic acid produced in tumors that enhance tumorigenesis.

[1] = system: human lung cancer cell line; details: cited from earlier work
[2] = system: patients with sinus & lung diseases including IPF and COPD; assay: Salts of pyruvate as 20 mM nasal sprays (Table IX); details: for Overall Rating 1-10: 20 mM (0.22%) nasal spray, 1 most negative, 10 best; for Increased in FEV-1% / Irritation / Percentage Increase in SaO2 over baseline / Percentage increase of Nitric Oxide over baseline / Relief of congestion, coughing and lung tightness: in vivo
Description: They never tested the individual salts for their ability to reduce inflammation or increase lung functions.

[3] = system: patients suffering from Parkinson; assay: Inhaled pyruvate salts in Parkinson patients; type: in vivo, human; details: 1 mM solution in the calcium, phosphate, magnesium formula, inhaled every day for five weeks
[4] = system: patients with lung diseases including COPD; assay: Comparison of inhaled salts of pyruvate, 5 ml of 0.5 mM solution (Table I); details: for Increased in FEV-1% lung function: 5 ml of 0.5 mM solution in physiological saline; for Overall Rating 1-10: 1 most negative, 10 best
Procedure: All previous studies using pyruvate to treat Allergic Rhinitis, Asthmatic and COPD patients used only the sodium salt form of pyruvic acid in saline. The drug products that were tested in the six Phase I/II clinical trial were differing concentrations of sodium pyruvate dissolved in 0.9% sodium chloride solution (Saline). These drug products contained 0.5 mM, 1.5 mM, or 5.0 mM of sodium pyruvate in physiological saline. They were administered to normal volunteers and COPD and asthmatics by inhalation therapy. […] Various sodium pyruvate solutions were evaluated in the lungs for their ability to enhance FEV1 values and reduce coughing, and lung tightness.
The amount of the salts delivered in the 5 ml's of the 0.5 mM pyruvate solutions were compared to the amounts of the salts in 5 ml's of human blood. […] When ethyl pyruvate reacts with oxygen radical like hydrogen peroxide, it is converted to ethane and alcohol and Co2 and acetate. Ethane and alcohol are lung irritants.
This formula can also be made by adding 3% calcium phosphate or dicalcium phosphate to the standard 0.5 mM to 30 mM sodium pyruvate saline solution see Table I.

[5] = system: patients with lung diseases including COPD; assay: Comparison of inhaled salts of pyruvate, 5 ml of 5 mM solution (Table II); details: for Increased in FEV-1%: 5 ml of 5 mM solution in saline; for Increased in FEV-1% / Irritation / Percentage Increase in SaO2 over baseline / Percentage increase of Nitric Oxide over baseline / Relief of congestion, coughing and lung tightness: inhaled; for Irritation / Percentage Increase in SaO2 over baseline / Percentage increase of Nitric Oxide over baseline / Relief of congestion, coughing and lung tightness / Overall Rating 1-10: 5 ml of 5 mM solution; for Overall Rating 1-10: 1 most negative, 10 best
[6] = system: patients with chronic Hypoxemia; assay: Various drugs with or without pre-inhaled pyruvate formulas (Table VII); type: in vivo, human; details: in vivo
Procedure: With the hundreds of patients tested in our various clinical trials, data was gathered as to the type of medications the patients used and the frequency of their use over a six-month period. The patients were asked to rate their medications form 1-10 with 1 being the most irritating with the most side effects and 10 being the best with no irritation and no side effects. In these clinical trials, various drugs were evaluated for irritation, mucus production, and efficacy in humans. The drugs were all evaluated using their current formulations and concentrations against the same formulations with the addition of sodium pyruvate, with the calcium, phosphate and magnesium formula given just prior to the use of their medications. They were instructed to 20 inhale this formula just prior to the use of their medications and to evaluate the effect of their medications on the 1-10 scale.
Patients on the various inhaled medications whether inhaled or taken orally or by IV infusion, were enlisted in the evaluation of the inhaled sodium pyruvate calcium, phosphate and magnesium formula. The patients were tested for their SaO2 levels and those that had SaO2 levels below 92% were asked to enlist in the study. […] After the SaO2 levels were determined prior to and one hour after taking their medications, the patients returned the following day, SaO2 measurements were taken one hour prior to taking their medications. The patients were then handed the hypotonic inhalation formula of sodium pyruvate with calcium, phosphate magnesium formula and instructed to inhale it one hour before taking their medications, SaO2 measurements were then taken one hour after taking their medications.

Smokers = assay: Inhaled nicotine in pyruvate formulas
[7] = Mucolytic activity with inhaled acetylcysteine; type: in vivo, human; details: with or versus commercial inhaled acetylcysteine
SARS CoV = type: cell-based
[8] = system: porcine respiratory coronavirus (PRCV); assay: Antiviral assay with NO donor in swine testicular (ST) cells; type: cell-based; details: NO donor SNAP
Procedure: We examined NO levels by Greiss assay in bronchoalveolar lavage (BAL) of pigs infected with either porcine respiratory coronavirus (PRCV). The antiviral effects of NO on this virus was tested in an in vitro system using a NO donor, S-nitroso-N-acetyl penicillamine (SNAP). We detected a large increase in NO levels in BAL fluids of PRCV-infected pigs. Pulmonary epithelial cell necrosis induced by PRCV coincided with increased NO. […] NO plays a role in innate immunity to respiratory CoV infections by inhibiting viral replication.

[9] = system: Patients with a severe case of CIVID-19 infection; type: in vivo, human; details: 5 patients treated with just the gas
[10] = 1 atm, cited from earlier work
[11] = aerosol, 10 mg/5 mL by inhalation, 8 weeks
[12] = 5 ml of 0.5 mM solution, inhaled

Compound | Overall Rating 1-10 [2] | Increased in FEV-1% [2] | Irritation [2] | Percentage Increase in SaO2 over baseline [2] | Percentage increase of Nitric Oxide over baseline [2] | Relief of congestion, coughing and lung tightness [2] | shaking [3] | Increased in FEV-1% lung function ([4]; inhaled) | Irritation [4, 12] | Percentage Increase in SaO2 over baseline [4, 12] | Percentage decrease or increase of Nitric Oxide over baseline [4, 12] | Relief of congestion, coughing and lung tightness [4, 12] | Overall Rating 1-10 ([4]; 5 ml of 0.5 mM solution) | Increased in FEV-1% [5] | Irritation [5] | Percentage Increase in SaO2 over baseline [5] | Percentage increase of Nitric Oxide over baseline [5] | Relief of congestion, coughing and lung tightness [5] | Overall Rating 1-10 [5] | other results
O=C(O)C(=O)CBr [3-bromopyruvate] |  |  |  |  |  |  |  |  |  |  |  |  |  |  |  |  |  |  |  | decreased tumor load (lung tumors; [11]): 60%; decreased tumor multiplicity (lung tumors; [11]): 40%; liver toxicity (lung tumors; aerosolized): did not accompany any liver toxicity; reduced tumor sizes (tumors; 20 mM sodium pyruvate, calcium, phosphate, magnesium formula inhaled 1-2 hours prior to 10 mg of 3-bromopyruvate): 90%; reduction of tumor sizes (tumors; by itself): 60%; apoptosis [1]: induced apoptosis through caspase-3, and PARP
CC(=O)C(=O)[O-].[Li+] [Lithium, lithium pyruvate] | 2 | 0.0% | Yes | No | 00.0% | 2 | substantially reduced | 1.0% | Yes | No | +6.0% | 2 | 2 | 1.0% | Yes | No | 28.0% | 2 | 2 | reduction of nitric oxide ([4]; 5 mls of a 0.5 mM inhalation solution): did not reduce nitric oxide; irritation in the nasal cavities compared with the lungs ([4]; evaluated in the nasal cavities): even more irritating; bronchial dilator effect ([4]; inhaled): acting as a bronchial dilator; Irritation ([4]; inhaled into the lungs): irritating
CN1CCCC1c1cccnc1 (stereo not shown) [Nicotine] |  |  |  |  |  |  |  |  |  |  |  |  |  |  |  |  |  |  |  | SaO2 Measurements taken after medication and compared to baseline [6]: −3; SaO2 Measurements taken after taking the medication and compared to baseline [6]: +2; SaO2 measurements taken after taking medication and compared to baseline [6]: +4; ability of each patient to determine the effect of nicotine delayed (Smokers; Nicotine delivered only with sodium pyruvate in saline solution): 26%; tolerability (Smokers; nicotine in modified formula sodium pyruvate and calcium, phosphate and magnesium, nasal or lungs): well tolerated
CC(=O)C(=O)N[C@@H](CS)C(=O)O [Pyruvyl-cysteine] |  |  |  |  |  |  |  | 11% |  | 0% | 0% | 5 | 8 | 5% |  | 0% | 1% | 8 | 8 | mucolytic activity [7]: as effective as acetylcysteine
[N]=O [nitric oxide] |  |  |  |  |  |  |  |  |  |  |  |  |  |  |  |  |  |  |  | replication cycle of SARS CoV (SARS CoV): specifically inhibits the replication cycle of SARS CoV; PRCV replication [8]: significantly inhibited PRCV replication; lung surfactants and lung fibrosis [9]: did not increase lung surfactants or reduce lung fibrosis; solubility in water ([10]; 20° C.): 4.6 ml/100 ml; solubility in water ([10]; 60° C.): 2.37 ml/100 ml
magnesium pyruvate | 4 | 4.0% | slight | no | 5.1% | 6 | also worked | 12.0% | None | no | −2.0% | 6 | 7 | 2.0% | None | no | 5.1% | 6 | 7 | FEV1 ([4]; 5 mls of a 0.5 mM pyruvate inhalation solution in COPD and asthmatic patients): 10%
